Experimental data reported in publication PMC4847155 (Biochemical Journal, 2016).
Where a name gives a salt, the structure may show the parent alone. Read-outs that look alike come from different tables or passages of the source.

Columns and labels:
Wt BMK cells = experiment: Live-cell imaging of cell death; format: cell-based, mouse; settings: for effect on apoptosis of Wt compared with DKO cells (annexin V staining): Wt versus DKO BMK cells, among the five compounds
[1] = test system: Bax−/− Bak−/− (DKO) BMK cells; experiment: Live-cell imaging of cell death; format: cell-based, mouse; settings: 24 h
Bax [2] = target: T1, Bax (Homo sapiens, UniProt Q07812); format: biochemical; settings: 100 nM Bax, 10 μM compound or 20 nM cBid/Bim, no membranes, DSS
T1 sequence (Q07812 whole entry): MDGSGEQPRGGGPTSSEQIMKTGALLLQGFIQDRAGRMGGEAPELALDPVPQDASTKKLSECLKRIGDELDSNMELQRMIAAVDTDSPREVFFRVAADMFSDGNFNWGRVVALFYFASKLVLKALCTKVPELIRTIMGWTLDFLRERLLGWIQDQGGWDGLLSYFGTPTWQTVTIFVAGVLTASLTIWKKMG

C126A Bax = C126A Bax (Homo sapiens, UniProt Q07812, C126A); settings: mitochondria, 20 nM Bax, 10 μM compound
Chain of C126A Bax (Q07812 whole entry C126A): as the sequence (Q07812 whole entry) above, with C126A counted along it

Bax [3] = target: T1, Bax; experiment: biochemical; format: biochemical
Bax [4] = target: T1, Bax; format: biochemical; settings: 100 nM Bax, 10 μM compound, DSS
Bax [5] = target: T1, Bax; experiment: biochemical

Molecule	formation of dimers and higher-order Bax oligomers in solution (Bax [2])	activation of C126A Bax (C126A Bax)	effect on apoptosis of Wt compared with DKO cells (annexin V staining) (Wt BMK cells)	EC50 (Bax [5]) [µM]	EC50 (Bax [3]) [µM]	further results
O=c1c2ccccc2[se]n1-c1ccccc1 [Ebselen, ebselen]	pronounced effects	almost completely resistant	–	–	–	toxicity to cells (Wt BMK cells; Wt BMK cells, 24 h): not toxic; toxicity to cells ([1]; DKO BMK cells): not toxic
CC(=O)[O][Hg][c]1ccccc1 [PMA, phenylmercuric acetate]	–	–	most pronounced effects	–	–	EC50 (Bax [3]; read-out: EC50 in mitochondria, 20 nM Bax, mitochondria from Bax−/− Bak−/− BMK cells, Smac–mCherry release): 1.3 µM; Bax oligomerization (higher-order complexes) in liposomes (Bax [4]): most pronounced effects
CC1=CC(=O)c2c(O)cccc2C1=O [Plumbagin, plumbagin]	–	–	most pronounced effects	> 3	1.5	–
CC(C)N(CCC(=O)c1ccc2ccccc2c1)Cc1ccccc1 [ZM, ZM39923 hydrochloride]	–	almost completely resistant	–	> 3	3.5	EC50 (Wt BMK cells; Mus musculus, 24 h, read-out: EC50 of cell kill): ~10 µM; EC50 ([1]; Mus musculus, read-out: EC50 of cell kill): ~10 µM
Bim: pro-apoptotic BH3 protein, recombinant, positive control for Bax oligomerization	no effects	–	–	–	–	–
